Patent US9815788B2, “Anti-angiogenic compounds” (University College Dublin National University of Ireland, …, priority 2012, dated 2017)
Structures can show the parent of a compound that is named as a salt.

Legend:
Type in all cases: cell-based, human
[1] = test system: OE33R radio-resistant oesophageal adenocarcinoma cells; assay: Quantification of glycolysis (ECAR, Seahorse), OE33R; settings: 10 μM, 24 hours
Method: OE33P radio-sensitive and OE33R radio-resistant oesophageal adenocarcinoma cells were used to test the effects of compounds 11B HCl, 11B CC11 HCl, 11B CC16 HCl, 11B 471 and 11B 268 on glycolysis. Cells were maintained in RPMI media supplemented with 10% foetal calf serum, penicillin (100 U/ml) and streptomycin (100 μg/ml). A total of 11,000 or 13,000 cells, in 100 μl media, were seeded per well in 24 well plates and left to incubate for 24 hours, with an additional 150 μl media added after 5 hours. The media was replaced with solutions containing 10 μM of 11B HCl, […], 11B CC16 HCl, 11B 471, 11B 268 or fresh media as a control. Each drug had 6 replicates. After 24 hours of treatment, media was replaced with modified DMEM supplemented with 0.5 mM glucose. Rates of glycolysis were determined using Seahorse Biosciences metabolism technology. The media was disposed and the cells washed with PBS. The cells were fixed with 1% glutaraldehyde for 15 minutes and then stained with crystal violet for 30 minutes. The plates were blotted and dried overnight. The cells were resuspended with 1% TritonX-100 and shaken for 15 minutes. The absorbance was read on a spectrophotometer at 590 nm. Rates of glycolysis were then normalised to cell number.
OE33P radiosensitive oesophageal adenocarcinoma cells were used to test the effects of the compound 11B_ZHCl on glycolysis. Cells were maintained in RPMI media supplemented with 10% foetal calf serum, penicillin (100 U/ml) and streptomycin (100 μg/ml). A total of 11,000 cells, in 100 μl media, were seeded per well in 24 well plates and left to incubate for 24 hours, with an additional 150 μl media added after 5 hours. The media was replaced with solutions containing 10 μM of 11B_ZHCl or fresh media as a control. Each treatment had 6 replicates. After 24 hours of treatment, media was replaced with modified DMEM supplemented with 0.5 mM glucose. Rates of glycolysis were determined using Seahorse Biosciences metabolism technology. […] The absorbance was read on a spectrophotometer at 590 nm. […] No changes in ECAR were detected in OE33R treated cells.

[2] = test system: OE33P radio-sensitive oesophageal adenocarcinoma cells; assay: Cell number after 24 hours drug treatment (crystal violet absorbance), OE33P; settings: 10 μM
Method: OE33P radio-sensitive and OE33R radio-resistant oesophageal adenocarcinoma cells were used to test the effects of the compounds 11B HCl, […], 11B CC16 HCl, 11B 471 and 11B 268 on cell number. Cells were maintained in RPMI media supplemented with 10% foetal calf serum, penicillin (100 U/ml) and streptomycin (100 gig/ml). A total of 11.000 or 13,000 cells, in 100 μl media, were seeded per well in 24 well plates and left to incubate for 24 hours, with an additional 150 μl media added after 5 hours. The media was replaced with solutions containing 10 μM of 11B HCl, 11B CC11 HCl, 11B CC16 HCl, 11B 471, 11B 268 or fresh media as a control. Each drug had 6 replicates. After 24 hours of treatment, the cells were fixed with 1% glutaraldehyde for 15 minutes and then stained with crystal violet for 30 minutes. The plates were blotted and dried overnight. The cells were resuspended with 1% TritonX-100 and shaken for 15 minutes. The absorbance was read on a spectrophotometer at 590 nm.
OE33P radiosensitive and OE33R radioresistant cells were used to test the effects of the compound 11B_Z_HCl on toxicity. Cells were maintained in RPMI media supplemented with 10% foetal calf serum, penicillin (100 U/ml) and streptomycin (100 μg/ml). A total of 11,000 cells, in 100 μl media, were seeded per well in 24 well plates and left to incubate for 24 hours, with an additional 150 μl media added after 5 hours. The media was replaced with solutions containing 10 μM of 11B_Z_HCl or fresh media as a control. Each treatment had 6 replicates. After 24 hours of treatment, the cells were fixed with 1% glutaraldehyde for 15 minutes and then stained with crystal violet for 30 minutes. The plates were blotted and dried overnight. The cells were resuspended with 1% TritonX-100 and shaken for 15 minutes. The absorbance was read on a spectrophotometer at 590 nm.

[3] = test system: OE33R radio-resistant oesophageal adenocarcinoma cells; assay: Quantification of oxidative phosphorylation (OCR, Seahorse), OE33R; settings: 10 μM, 24 hours
Method: (§1) OE33P radiosensitive and OE33R radio-resistant oesophageal adenocarcinoma cells were used to test the effects of the compounds 11B HCl, 11B CC11 HCl, 11B CC16 HCl, 11B 471 and 11B 268 on oxidative phosphorylation. Cells were maintained in RPMI media supplemented with 10% foetal calf serum, penicillin (100 U/ml) and streptomycin (100 μg/ml). A total of 11,000-13,000 cells, in 100 μl media, were seeded per well in 24 well plates and left to incubate for 24 hours, with an additional 150 μl media added after 5 hours. The media was replaced with solutions containing 10 μM of 11B HCl, 11B CC11 HCl, 11B CC16 HCl, 11B 471, 11B 268 or fresh media as a control. Each drug had 6 replicates. After 24 hours of treatment, media was replaced with modified DMEM supplemented with 0.5 mM glucose. Rates of oxidative phosphorylation were determined using Seahorse Biosciences metabolism technology. The media was disposed and the cells washed with PBS. The cells were fixed with 1% glutaraldehyde for 15 minutes and then stained with crystal violet for 30 minutes. The plates were blotted and dried overnight. The cells were resuspended with 1% TritonX-100 and shaken for 15 minutes. The absorbance was read on a spectrophotometer at 595 nm. Rates of oxidative phosphorylation were then normalised to cell number.
OE33P radiosensitive and OE33R radioresistant oesophageal adenocarcinoma cells were used to test the effects of the compound 11B_Z_HCl on oxidative phosphorylation. Cells were maintained in RPMI media supplemented with 10%0/foetal calf serum, penicillin […]) and streptomycin (100 μg/ml). A total of 11,000 cells, in 100 μl media, were seeded per well in 24 well plates and left to incubate for 24 hours, with an additional 150 μl media added after 5 hours. The media was replaced with solutions containing 10 μM of 11B_Z_HCl or fresh media as a control. Each treatment had 6 replicates. After 24 hours of treatment, media was replaced with modified DMEM supplemented with 0.5 mM glucose. Rates of oxidative phosphorylation were determined using Seahorse Biosciences metabolism technology. […]

[4] = test system: OE33P radiosensitive oesophageal adenocarcinoma cells; assay: Quantification of oxidative phosphorylation (OCR, Seahorse), OE33P; settings: 10 μM, 24 hours
Method: as §1
OE33P radiosensitive and OE33R radioresistant oesophageal adenocarcinoma cells were used to test the effects of the compound 11B_Z_HCl on oxidative phosphorylation. Cells were maintained in RPMI media supplemented with 10%0/foetal calf serum, penicillin […]) and streptomycin (100 μg/ml). A total of 11,000 cells, in 100 μl media, were seeded per well in 24 well plates and left to incubate for 24 hours, with an additional 150 μl media added after 5 hours. The media was replaced with solutions containing 10 μM of 11B_Z_HCl or fresh media as a control. Each treatment had 6 replicates. After 24 hours of treatment, media was replaced with modified DMEM supplemented with 0.5 mM glucose. Rates of oxidative phosphorylation were determined using Seahorse Biosciences metabolism technology. Rates of oxidative phosphorylation were then normalised to cell number.

| SMILES | extracellular acidification rate (ECAR), a measure of glycolysis [1] | cell number, measured by % absorbance ([2]; HCl salt) | oxygen consumption rate (OCR), a measure of oxidative phosphorylation ([3]; HCl salt) | oxygen consumption rate (OCR), a measure of oxidative phosphorylation ([4]; HCl salt) | cell number, measured by % absorbance [2] | oxygen consumption rate (OCR), a measure of oxidative phosphorylation [3] | oxygen consumption rate (OCR), a measure of oxidative phosphorylation [4] |
| --- | --- | --- | --- | --- | --- | --- | --- |
| Cl.Oc1ccccc1/C=C\c1ccc2ccccc2n1 [Compound 11B_Z_HCl, (Z)-2-(2-(Quinolin-2-yl)vinyl) phenol HCl salt] | No changes | did not significantly reduce cell number | Significantly Reduces | Significantly Reduces |  |  |  |
| Oc1ccccc1/C=C/c1ccc2ccccc2n1 [11B HCl] | significantly reduce |  |  |  | did not significantly reduce cell number | significantly reduce | significantly reduce |
| C/C(=C\c1ccccc1O)c1ccc2ccccc2n1.Cl [Compound 11B_CC11_HCl, (E)-2-(2-Quinolin-2-yl-propenyl)-phenol HCl salt] |  |  |  |  | did not significantly reduce cell number | significantly reduce | significantly reduce |
